Read-outs that look alike come from different tables or passages of the source.
What was measured:
[1] = system: fibroblasts (young and senescent cells); experiment: Soft agar assay (colony formation); format: cell-based, human; conditions: 30 μM LPA, 300 μM ACI, three weeks
Method: Young and senescent cells were distributed in DMEM containing 10% bovine serum and 0.3% top agar, which were loaded on 0.6% basic agar layer in 60 mm culture dish. The cells treated with 30 μM LPA (L), 300 μM ACI (A), or both LPA and ACI for three weeks were fixed with 70% ethanol, and so was the control treated with nothing. After staining the cells with trypan blue, colonies were counted under microscope. HeLa and HepG2 cancer cell lines were distributed on soft agar dish, as positive controls, followed by treatment with LPA, ACI, or LPA+ACI. Colony formation was also analysed. The number of colonies formed in soft agar dish was plotted as mean+/− standard deviation and each measurement was repeated at least three times.
LPA and ACI were treated to fibroblast and cancer cell groups, followed by soft agar assay. […] From the above results, it was confirmed that LPA and ACI induce normal cell proliferation but not cause any transformation of cells to turn them into tumor.

PKA = PKA activity in cells; format: cell-based, human
[2] = system: senescent cells (human fibroblasts); experiment: Cell cycle analysis by flow cytometry (S phase entry), senescent cells; format: cell-based; conditions: 30 μM LPA, 300 μM ACI, 1, 2, 4 days
Method: (§1) At this time, cell numbers regarded as significant compared with that of the control were presented in (A) and (B) (p<0.001). Cell cycle in (C) was analysed by flow cytometry. The percentage of cells entered S phase was averaged of three repeated measurements (p<0.001). Young and senescent cells were treated with 30 μM of LPA, 300 μM of ACI, LPA+ACI, 10 mM of AMPKI or 10 mM of AICAR, followed by culture for 1, 2, and 4 days. To analyze cell cycle, the cells were washed with buffer twice and then the cells were centrifuged using 0.25% trypsin, followed by fixation in cold 70% ethanol. Analysis was performed by flow cytometry (Becton Dickinson FACSorter) using […] of PI containing RNase. Cell proliferation and cAMP level were increased by LPA in senescent cells (Yeo et al., 2002). The AC inhibitor (ACI) was added to reduce cAMP which had been increased by LPA. And then, cell proliferation was investigated. Cells were cultured in serum-free medium for 2 days to arrest them in G0/G1 phase. Then, the cells were treated with LPA, ACI or LPA+ACI. Total cell number was measured on day 1, day 2 and day 4, or the cells entered into S phase were counted to evaluate cell proliferation. When young cells were treated with 300 μM of ACI, cell proliferation was reduced, compared with control (FIG. 1A). […]

[3] = system: senescent cells (human fibroblasts); experiment: Microscope observation of morphology of senescent cells; format: cell-based; conditions: day 4
Method: In the meantime, when senescent cells were treated with ACI, p21 expression was reduced on day 2 and day 4. […] Microscope observation also confirmed that young cell like cells were increased compared with the control (untreated senescent cells are bigger in size, so that less cells can be observed under microscope, compared with treated senescent cells). […] So was cyclin D1 expression (FIG. 3B). […] Thus, when senescent cells were treated with ACI, p21 and cyclin D1 expressions were reduced and thereby DNA synthesis in senescent cell increased to induce cell proliferation.

cAMP = conditions: cited from earlier work
[4] = system: young cells (human fibroblasts); experiment: Cell cycle analysis by flow cytometry (S phase entry), young cells; format: cell-based; conditions: 30 μM LPA
Method: as §1

Row | Molecule | colony formation in soft agar (transformation) [1] | PKA activity (PKA; senescent cells) | PKA activity (PKA; young cells) | cell number entered into S phase [2] | change of senescent cells into young cell like cells [3] | cAMP level (cAMP; senescent cells (Yeo et al., 2002)) | cAMP level (cAMP; young cells (Jang et al., 2006b)) | S phase entry [4]
1 | Nc1ncnc2c1ncn2C1CCCO1 (stereo not drawn) [ACI, 9-(tetrahydro-2′-furyl)adenine] | did not form any colony | completely inhibited | completely inhibited | increased | most cells were changed into young cell like cells | – | – | –
2 | lysophosphatidic acid [LPA] | did not form any colony | – | – | – | – | increased | down-regulated | promotion of S phase entry
